Measurements from publication PMC3830869, “Total Chemical Synthesis of a Heterodimeric Interchain Bis-Lactam-Linked Peptide: Application to an Analogue of Human Insulin-Like Peptide 3” (International Journal of Peptides, 2013).
Numbered stars: 1 amine (or outer) side, 2 acyl side, 3 side chain; on linkers, the order of the positions; unused ones are H or OH. Bridge positions count the residues as written; N and C are the ends. Square brackets hold non-standard residues; d marks the D form. Ends that are not written are not given here. I, II: the chains in the order shown. βAsp = O=C(O)[C@H](CC(=O)[*:2])N[*:1]; Dap = NC[C@H](N)C(=O)O

Assays:
RXFP2 [1] = molecular target: T1, RXFP2 (Homo sapiens, UniProt Q8WXD0); assay: RXFP2 competition binding assay with europium-labelled INSL3; design: expressed in transfected cells; host or cells: HEK-293T; conditions: competition with 0.3 nM europium-labelled INSL3, unlabelled peptide 0.01 nM–1 μM; HEK-293T cells stably transfected with RXFP2; mean ± SEM; n in parentheses in Table 1 (6 for human INSL3, 3 for the analogues); read-out: Receptor binding pKi (converted)
T1 sequence (Q8WXD0 whole entry): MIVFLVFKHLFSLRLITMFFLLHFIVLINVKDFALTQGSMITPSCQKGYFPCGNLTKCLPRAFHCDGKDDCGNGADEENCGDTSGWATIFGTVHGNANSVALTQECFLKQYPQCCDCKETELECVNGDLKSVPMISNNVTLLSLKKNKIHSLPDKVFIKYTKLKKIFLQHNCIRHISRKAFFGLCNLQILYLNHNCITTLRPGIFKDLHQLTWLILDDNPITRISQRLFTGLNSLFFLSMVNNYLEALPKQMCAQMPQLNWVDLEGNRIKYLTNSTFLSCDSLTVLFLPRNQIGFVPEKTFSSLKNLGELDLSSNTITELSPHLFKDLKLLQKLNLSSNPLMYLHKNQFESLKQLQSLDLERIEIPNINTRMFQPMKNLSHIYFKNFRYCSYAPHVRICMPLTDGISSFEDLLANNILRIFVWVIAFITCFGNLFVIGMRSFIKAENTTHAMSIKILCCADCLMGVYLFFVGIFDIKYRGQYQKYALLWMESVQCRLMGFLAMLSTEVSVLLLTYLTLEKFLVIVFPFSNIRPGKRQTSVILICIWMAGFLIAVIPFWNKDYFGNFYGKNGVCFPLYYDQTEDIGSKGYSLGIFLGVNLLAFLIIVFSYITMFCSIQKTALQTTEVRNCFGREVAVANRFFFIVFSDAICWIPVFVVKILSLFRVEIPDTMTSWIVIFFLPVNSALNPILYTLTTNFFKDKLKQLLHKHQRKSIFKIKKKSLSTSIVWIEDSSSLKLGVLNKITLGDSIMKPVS

RXFP2 [2] = molecular target: T1, RXFP2; design: expressed in transfected cells; conditions: data for entry 2 taken from the reference; n = 3; ref [32]; cited from earlier work
Excerpt: Table 1 Receptor binding affinities (pKi) of INSL3 and analogues. Data for entry 2 taken from reference. | column: Receptor binding pKi (n=) || Moreover, to date, there have been no reports of a chemical synthesis of a bis-lactam cross-linked heterodimeric peptide. Consequently, in this study, we undertook an examination of the feasibility of a total step-wise synthesis of, first, a monolactam A24-B22 analogue and, subsequently, a bis-lactam A11-B10/A24-B22 analogue of INSL3. Our novel strategy involved the continuous assembly of both the A- and B-chains, plus the lactam bridges on the same solid support, that is, without using preformed peptide fragments. In order to simplify assembly, the C-terminus of the A-chain was truncated at p ... || Both the ΔA25/26 human INSL3 monolactam A24-B22 and bis-lactam A11-B10/A24-B22 analogues were tested in the RXFP2 competition binding assay (Table 1).

Ki (RXFP2 [1]) [nM]	Substance	Receptor binding pKi (RXFP2 [2])
12	I: PTPEMREKL[Dap]GHHFVRALVRV[Dap]GGPRWSTEA / II: AAATNPARYCDLSGCTQQDLLTL[βAsp] (amide I:10-II:11, I:22-II:C; disulfide II:10-II:15)	–
4.47	I: PTPEMREKLCGHHFVRALVRV[Dap]GGPRWSTEA / II: AAATNPARYCCLSGCTQQDLLTL[βAsp] (disulfide I:10-II:11, II:10-II:15; amide I:22-II:C) [ΔA25/26 human INSL3 mono-lactam A24-B22]	–
–	ΔA25/26 human INSL3: INSL3 analogue, C-terminus of the A-chain truncated at position 24, omitting Pro A25 and Tyr A26 (chain 1 AAATNPARYCCLSGCTQQDLLTLC; chain 2 PTPEMREKLCGHHFVRALVRVCGGPRWSTEA; Disulfides A10-A15 (intra-A), A11-B10 and A24-B22 (interchain); A-chain is A1-A24 (Pro A25 and Tyr A26 omitted); B-chain is 31 residues ending in Ala; Ch)	8.59 ± 0.06 (3)
0.575	I: PTPEMREKLCGHHFVRALVRVCGGPRWSTEA / II: AAATNPARYCCLSGCTQQDLLTLCPY (disulfide I:10-II:11, I:22-II:24, II:10-II:15) [Human INSL3]	–
